This is an account of results in patent US10287292B2, “CXCR7 antagonists” (CHEMOCENTRYX, INC., priority 2012, dated 2019).

The target in assay [1] is T1, CXCR7 receptor (Homo sapiens (Human), UniProt P25106). As to the kind of experiment: Buffer Binding Analysis: displacement of 125I-labeled SDF-1 from CXCR7. Particulars: 125I SDF-1 displacement, buffer binding medium, MCF-7 and/or MDA-MB-435S CXCR7 transfected cells, 3 hr at 4° C.; read-out: Avg Bind IC50. On the procedure: The compounds were combined with cells expressing the CXCR7 receptor (e.g., MCF cells or cells transfected to express CXCR7) in the presence of the 125 I-labeled SDF-1 chemokine as detailed in Determination of IC50 values. Reagents and Cells (see below). The ability of the compounds to displace the labeled chemokine from the CXCR7 receptor sites at multiple concentrations was then determined with the screening process.
T1 sequence (P25106 whole entry): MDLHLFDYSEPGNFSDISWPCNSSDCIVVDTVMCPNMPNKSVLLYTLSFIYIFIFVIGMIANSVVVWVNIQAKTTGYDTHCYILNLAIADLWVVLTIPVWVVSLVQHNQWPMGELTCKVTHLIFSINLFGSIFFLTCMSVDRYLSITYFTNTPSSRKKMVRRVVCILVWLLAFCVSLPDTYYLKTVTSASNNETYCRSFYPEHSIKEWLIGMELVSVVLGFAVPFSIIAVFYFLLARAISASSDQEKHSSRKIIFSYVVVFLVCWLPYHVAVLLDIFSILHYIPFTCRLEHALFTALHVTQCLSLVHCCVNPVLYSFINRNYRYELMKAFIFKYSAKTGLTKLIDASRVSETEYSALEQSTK
Compounds that were deemed effective modulators were able to displace at least 50% of the SDF-1 from the CXCR7 receptor at concentrations at or below 15 micromolar (μM) but >2500 nM (+); and more preferably at concentrations from >500 nM to ≤2500 nM (++). At present, especially preferred compounds can displace at least 50% of the SDF-1 from the CXCR7 receptor at concentrations at or below 500 nM (+++). Exemplary compounds that met these criteria are reproduced in Table 1 and the Examples above. In Table 1, Avg Bind IC50 refers to the Buffer Binding Analysis described below, while Avg Ser IC50 refers to the Serum Binding Analysis described below. All compounds were prepared as described in the Examples above, or by related methods substituting readily available starting materials.
^125I-labeled SDF-1 was purchased from Perkin-Elmer Life Sciences, Inc. (Boston, Mass.). The MCF-7 (adenocarcinoma; mammary gland) cell line was obtained from the American Type Culture Collection (ATCC, Manassas, Va.) or and was cultured in DMEM (Mediatech, Herndon, Va.) supplemented with 10% fetal bovine serum (FBS) (HyClone Logan, Utah) and bovine insulin (0.01 mg/mL) (Sigma. St. Louis, Mo.) at 37° C. in a humidified incubator at a 5% CO2/air mixture. CXCR7 transfected MDA-MB-435S were produced as described below. MDA-MB-435S human breast cancer line, was purchased from ATCC, and cultured in DMEM/10% FBS medium. The complete coding sequence of the gene encoding CXCR7 (a.k.a. CCXCKR2, hRDC1), was isolated from MCF-7 cells using μMACs mRNA isolation kit (Miltenyi Biotec, Auburn, Calif.). DNA contamination was removed by DNase digestion via RNeasy columns (Qiagen, Inc., Valencia, Calif.) and cDNA was generated using GeneAmp RNA PCR Core Kit (Applied Biosystems, Foster City. Calif.). PCR of cDNA samples was performed using Taq PCR Master Mix kit (Qiagen. Inc.) and hRDC1 primers harboring 5′ and 3′ Not I sites (hRDC1F 5′ […]-3, hRDC1R 5′-[…]-3′) Not I digested PCR product was ligated into Not I digested pcDNA3.1(+)(Invitrogen, Carlsbad, Calif.) and screened for orientation and sequence confirmed. Plasmid DNA was then isolated from overnight bacterial cultures by Maxiprep (Qiagen, Inc.). Plasmid DNA (10 μg) was added to MDA-MB-435s cells and cells were electroporated (0.22 kV, 960 uF) via Gene Pulser (Biorad laboratories, Hercules, Calif.). 48 hr post-electroporation, cells were transferred to selection medium (600 ug/ml G418).
Target compounds can be tested to determine their ability to bind with CXCR7 sites on MCF-7 and/or MDA-MB-435S CXCR7 transfected cells. Efficiency-maxim/zed radioligand binding using filtration protocols as described in Dairaghi D J, et al., HHV8-encoded vMIP-I selectively engages chemokine receptor CCR5. Agonist and antagonist profiles of viral chemokines., J. Biol. Chem. 1999 Jul. 30; 274(31): 21569-74 and Gosling J. et al., Cutting edge: identification of a novel chemokine receptor that binds dendritic cell-and T cell-active chemokines including ELC. SLC, and TECK., J. Immunol. 2000 Mar. 15; 164(6):2851-6 was used.
In these assays, MCF-7 and/or MDA-MB-435S cells are interrogated with the target compounds and the ability of these compounds to displace ^125I radiolabeled SDF-1 assessed using the protocol described in Dairaghi and Gosling. […]
(Loss of bound radioactivity is the signal in a displacement assay; it reports binding, not function.)

Assay [2] addresses T1, CXCR7 receptor. The assay is described as follows: Serum Binding Analysis: displacement of 125I-labeled SDF-1 from CXCR7 in 100% human serum. Particulars: 125I SDF-1 displacement in 100% human serum, MCF-7 and/or MDA-MB-435S CXCR7 transfected cells, 3 hrs at 4° C.; read-out: Avg Ser IC50. Put shortly:
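MCF-7 or CXCR7-transfected MDA-MB-435S cells incubated with compounds and 125I-SDF-1 in human AB serum plus 10 mM HEPES, pH 7.4, for 3 h at 4° C with gentle agitation. Bound radioligand separated by filtration; IC50 from displacement across multiple concentrations.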

Assay [3] relates to C6 cells. The assay is described as follows: Rat C6 model of glioblastoma. It counts as in vivo. Particulars: C6 cells implanted into brains of Sprague-Dawley rats, tumors irradiated with 5-20 Gy after 7 days, then compound vs vehicle control. On the procedure:
Many tumor models in animals are known in the art, and may be employed to evaluate a compound of instance. For instance, in a rat C6 model of glioblastoma, 1×10^6 C6 cells were implanted by stereotactic injection into the into the brains of Sprague-Dawley rats. After 7 days tumors were irradiated with between 5-20 Gy of radiation. Following irradiation rats were treated (eg via subcutaneous, intraperitoneal, oral, parenteral or other route) with compound or vehicle control and tumors are allowed to progress. Animals were followed until death or loss of >20% weight, or removed for tumor induced neurodeficits eg seizures and immobility in according with appropriate regulations and standards.

A value given as a limit tells only on which side of the number the result lay.

For orientation: IC50 means the point on the concentration scale where inhibition reaches its midpoint. In the case of `O=C(N[C@H]1CCN(c2nccn3ccnc23)C1)c1ncn(-c2ccc(F)cc2)n1` [Compound 1.090], the IC50 in assay [1] and in assay [2] was at most 500 nM in each case. For the same molecule, the “antitumor activity (delay in tumor growth, Kaplan Meier analysis of survival)” value in assay [3] is “profound antitumor activity”.
